Literature values in article PMC7383075 (Journal of Nuclear Medicine, 2020).

Assays:
[1] = tested on: insulinomas; settings: at the proper dilution; ref [23]
Text: A targeted approach, as described in this study, has the benefit of creating signals with higher contrast between the target and surrounding tissue and therefore more precise delineation of the lesion. […] Re ...

[2] = tested on: primary breast cancer lesions, as well as peritoneal metastases of colorectal cancer; settings: primary breast cancer lesions and peritoneal metastases of colorectal cancer; ref [29],[30]
Text: Contributing to the potential for clinical translation of this tracer is the use of the NIR fluorophore IRDye 800CW. This dye is widely used in the development of targeted fluorescence imaging approaches, and several studies already have shown the first successful clinical applications using this fluorophore. […] Also, IRDye 800CW coupled to the monoclonal antibody cetuximab was successfully used fo ...

Row | Compound | uptake in insulinomas versus normal pancreatic tissue [1] | detection of cancer lesions [2]
1 | CN(C)c1ccc2nc3ccc(=[N+](C)C)cc-3sc2c1 [methylene blue] | higher uptake in insulinomas than in normal pancreatic tissue | –
2 | IRDye 800CW coupled to the monoclonal antibody bevacizumab: IRDye 800CW coupled to the monoclonal antibody bevacizumab | – | shown to be feasible
